Results published in ChEMBL document CHEMBL1201862, “PubChem BioAssay data set” (2004).
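Compound exposure: 48 hours, 5 concentrations, 96-well plates. GI50 = concentration required for 50% inhibition of growth.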 The source made the active and inactive calls. Rule as the data show it: active = GI50 up to about 1.1 µM and inactive = higher.

How the values were obtained:
Experiment in all cases: growth of human tumour cells (NCI), 48 h
A498 = system: A498
ACHN = system: ACHN
CCRF-CEM = system: CCRF-CEM
DU-145 = system: DU-145
HCC 2998 = system: HCC 2998
HOP-62 = system: HOP-62
IGROV-1 = system: IGROV-1
K562 = system: K562
M14 = system: M14
Malme-3M = system: Malme-3M
PC-3 = system: PC-3
SF-295 = system: SF-295
SK-MEL-28 = system: SK-MEL-28
SK-MEL-5 = system: SK-MEL-5
SN12C = system: SN12C
SR = system: SR
T47D = system: T47D
UO-31 = system: UO-31
RPMI-8226 = system: RPMI-8226
SK-MEL-2 = system: SK-MEL-2

Measured: GI50

CN(C)c1ccc(/C=N/Nc2nc3ccccc3c(=O)n2-c2ccccc2)cc1
inactive: A498 63.2 µM | ACHN 67.3 µM | CCRF-CEM > 100 µM | DU-145 > 100 µM | HCC 2998 > 100 µM | HOP-62 33.3 µM | IGROV-1 > 100 µM | K562 > 100 µM | M14 78 µM | Malme-3M 43.1 µM | PC-3 55.1 µM | SF-295 93.1 µM | SK-MEL-28 > 100 µM | SK-MEL-5 56.9 µM | SN12C > 100 µM | SR > 100 µM | T47D > 100 µM | UO-31 > 100 µM

COc1cccc(C23CCCC(C2)NCC3Br)c1OC (configuration not stated)
inactive: A498 15.4 µM | ACHN 21 µM | CCRF-CEM 21.9 µM | DU-145 53.8 µM | HOP-62 38 µM | IGROV-1 75.7 µM | K562 21.5 µM | M14 34.4 µM | Malme-3M > 100 µM | PC-3 30.5 µM | RPMI-8226 19.2 µM | SF-295 38 µM | SK-MEL-28 48 µM | SK-MEL-2 > 100 µM | SK-MEL-5 2.55 µM | SN12C 31 µM | SR 31.3 µM | T47D 26.3 µM | UO-31 47.4 µM

CC(C)=CCNc1ncnc2[nH]cnc12
inactive: A498 > 100 µM | ACHN > 100 µM | CCRF-CEM > 100 µM | DU-145 > 100 µM | HOP-62 > 100 µM | IGROV-1 > 100 µM | K562 > 100 µM | M14 > 100 µM | Malme-3M > 100 µM | PC-3 > 100 µM | RPMI-8226 > 100 µM | SF-295 > 100 µM | SK-MEL-28 > 100 µM | SK-MEL-2 > 100 µM | SK-MEL-5 87.7 µM | SN12C > 100 µM | SR > 100 µM | T47D > 100 µM | UO-31 > 100 µM

COP(=O)(OC)C(NC=O)P(=O)(OC)OC
inactive: A498 > 100 µM | ACHN > 100 µM | CCRF-CEM > 100 µM | DU-145 > 100 µM | HCC 2998 > 100 µM | HOP-62 > 100 µM | IGROV-1 > 100 µM | K562 > 100 µM | M14 > 100 µM | Malme-3M > 100 µM | PC-3 > 100 µM | RPMI-8226 > 100 µM | SF-295 > 100 µM | SK-MEL-28 > 100 µM | SK-MEL-5 > 100 µM | SN12C > 100 µM | SR > 100 µM | T47D > 100 µM | UO-31 > 100 µM

O=C(/N=N/c1ccccc1Cl)NNc1ccccc1Cl
inactive: A498 29 µM | ACHN 28.1 µM | CCRF-CEM 22.2 µM | DU-145 43.2 µM | HCC 2998 27.1 µM | HOP-62 9.48 µM | IGROV-1 20.4 µM | K562 27.8 µM | M14 56.8 µM | Malme-3M 67 µM | PC-3 30 µM | RPMI-8226 24.7 µM | SK-MEL-28 69.7 µM | SK-MEL-2 32 µM | SK-MEL-5 85.3 µM | SN12C 61.7 µM | SR 27.5 µM | T47D 30.5 µM | UO-31 21.8 µM

COc1cc(-c2nc(N)c(C#N)c3c2CCS(=O)(=O)c2ccc(C)cc2-3)cc(OC)c1OC
inactive: A498 29.4 µM | ACHN 28.6 µM | CCRF-CEM > 100 µM | DU-145 > 100 µM | HCC 2998 > 100 µM | HOP-62 22.9 µM | IGROV-1 18.7 µM | K562 > 100 µM | M14 > 100 µM | Malme-3M 17.5 µM | PC-3 > 100 µM | RPMI-8226 > 100 µM | SK-MEL-28 > 100 µM | SK-MEL-2 49.7 µM | SK-MEL-5 > 100 µM | SN12C 39.6 µM | SR > 100 µM | T47D 98.2 µM | UO-31 > 100 µM

O=C1/C(=C\c2c(-c3ccccc3)[nH]n(-c3ccccc3)c2=O)C(c2ccccc2)=NN1c1ccccc1
inactive: A498 > 100 µM | ACHN > 100 µM | CCRF-CEM 79.4 µM | DU-145 > 100 µM | HCC 2998 > 100 µM | HOP-62 > 100 µM | IGROV-1 > 100 µM | K562 87.5 µM | M14 > 100 µM | Malme-3M > 100 µM | PC-3 > 100 µM | RPMI-8226 > 100 µM | SF-295 > 100 µM | SK-MEL-28 > 100 µM | SK-MEL-2 > 100 µM | SN12C > 100 µM | SR 20 µM | T47D > 100 µM | UO-31 > 100 µM

Cn1c(=O)c2nc(CCCc3ccc([N+](=O)[O-])cc3)[nH]c2n(C)c1=O
inactive: A498 > 100 µM | ACHN > 100 µM | DU-145 > 100 µM | HOP-62 > 100 µM | IGROV-1 > 100 µM | K562 31.2 µM | M14 > 100 µM | Malme-3M > 100 µM | PC-3 > 100 µM | RPMI-8226 > 100 µM | SF-295 > 100 µM | SK-MEL-28 > 100 µM | SK-MEL-2 > 100 µM | SK-MEL-5 59.3 µM | SN12C > 100 µM | SR > 100 µM | T47D > 100 µM | UO-31 > 100 µM

CSc1ncnc2c1ncn2C1CC(Oc2ccc(C)cc2)C(COc2ccc(C)cc2)O1 (configuration not stated)
inactive: A498 > 100 µM | ACHN > 100 µM | CCRF-CEM > 100 µM | DU-145 > 100 µM | HCC 2998 > 100 µM | HOP-62 > 100 µM | IGROV-1 > 100 µM | M14 > 100 µM | Malme-3M > 100 µM | PC-3 > 100 µM | RPMI-8226 9.66 µM | SF-295 > 100 µM | SK-MEL-28 > 100 µM | SK-MEL-2 > 100 µM | SK-MEL-5 52.2 µM | SN12C > 100 µM | SR 76.6 µM | T47D 16.6 µM

COCC12CCC(OC)C34C5CC6(O)C(OC)C=C(C5C6OC(=O)c5ccccc5)C(C(OC)C13)C4N(C)C2 (configuration not stated)
inactive: A498 > 100 µM | ACHN > 100 µM | CCRF-CEM > 100 µM | DU-145 > 100 µM | HCC 2998 > 100 µM | HOP-62 > 100 µM | IGROV-1 > 100 µM | M14 > 100 µM | Malme-3M > 100 µM | PC-3 > 100 µM | RPMI-8226 > 100 µM | SF-295 > 100 µM | SK-MEL-28 > 100 µM | SK-MEL-2 > 100 µM | SK-MEL-5 > 100 µM | SN12C > 100 µM | SR > 100 µM | T47D > 100 µM | UO-31 > 100 µM
